From ChEMBL document CHEMBL6096731, “Structure-Guided Optimization and Preclinical Evaluation of 6-O-Benzylguanine-Based Pin1 Inhibitor for Hepatocellular Carcinoma Treatment” (J Med Chem, 2025)
Activity calls are given as the source filed them. The rule behind the calls is not given here.

Columns and labels:
[1] = Toxicity in c-Myc/Alb-Cre transgenic mouse assessed as heart damage at 2.5 mg/kg, po; format: organism-based; settings: in vivo
[2] = test system: SK-HEP1; assay: Antitumor activity against human SK-HEP1 cells xenografted in female BALB/c mouse assessed as reduction in tumor growth at 2.5 mg/kg, po measured every 4 days; format: functional, organism-based; settings: time 4.0 day
[3] = Antiproliferative activity against human HCC cells assessed as cell viability incubated for 72 hrs by alamar blue dye based assay; format: toxicity; settings: HCC cells
[4] = Toxicity in c-Myc/Alb-Cre transgenic mouse assessed as effect on AST level at 2.5 mg/kg, po; format: organism-based; settings: in vivo
[5] = species on record: Homo sapiens; assay: Inhibition of FKBP12 (unknown origin) expressed in Escherichia coli
[6] = test system: SK-HEP1; assay: Induction of cell cycle arrest in human SK-HEP1 cells assessed as accumulation of cells at S phase by PI staining based flow cytometry analysis; format: functional
[7] = test system: SK-HEP1; assay: Antiproliferative activity human SK-HEP1 cells assessed as inhibition of cell proliferation incubated for 120 hrs; format: functional, cell-based; settings: dose <= 2.0 µM
[8] = Chemical stability of compound by HPLC analysis; format: physicochemical
[9] = test system: SK-HEP1; assay: Antitumor activity against human SK-HEP1 cells xenografted in female BALB/c mouse assessed as increase in pin1 level in brain at 2.5 mg/kg, po measured every 4 days; format: functional, organism-based; settings: time 4.0 day
[10] = test system: SK-HEP1; assay: Antitumor activity against human SK-HEP1 cells xenografted in female BALB/c mouse assessed as increase in pin1 level in tumor at 2.5 mg/kg, po measured every 4 days; format: functional, organism-based; settings: time 4.0 day
[11] = Toxicity in c-Myc/Alb-Cre transgenic mouse assessed as effect on ALP level at 2.5 mg/kg, po; format: organism-based; settings: in vivo
[12] = Toxicity in c-Myc/Alb-Cre transgenic mouse assessed as lung damage at 2.5 mg/kg, po; format: organism-based; settings: in vivo
[13] = test system: SK-HEP1; assay: Antiproliferative activity human SK-HEP1 cells assessed as cell viability measured at 96 hrs; format: functional, cell-based
[14] = test system: SK-HEP1; assay: Antitumor activity against human SK-HEP1 cells xenografted in female BALB/c mouse assessed as downregulation of beta-catenin level at 2.5 mg/kg, po measured every 4 days by immunoblotting analysis; format: functional, organism-based; settings: time 4.0 day
[15] = target: T1, Peptidyl-prolyl cis-trans isomerase NIMA-interacting 1 (Homo sapiens, UniProt Q13526); assay: Inhibition of pin1 in human SK-HEP1 cells assessed as reduction in c-myc level at 5 uM incubated for 24 hrs by immunoblotting analysis; format: cell-based
T1 sequence (Q13526 whole entry): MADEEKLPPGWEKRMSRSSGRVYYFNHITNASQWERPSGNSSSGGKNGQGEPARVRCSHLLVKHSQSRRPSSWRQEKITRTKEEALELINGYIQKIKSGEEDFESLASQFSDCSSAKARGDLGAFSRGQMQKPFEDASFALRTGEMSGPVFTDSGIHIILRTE

[16] = Toxicity in c-Myc/Alb-Cre transgenic mouse assessed as liver damage at 2.5 mg/kg, po; format: organism-based; settings: in vivo
[17] = test system: SK-HEP1; assay: Upregulation of miR-29b expression in human SK-HEP1 cells at 5 uM incubated for 36 hrs by RT-PCR analysis; format: functional, cell-based
[18] = test system: SK-HEP1; assay: Antiproliferative activity against human SK-HEP1 cells transfected with human pin1 assessed as cell viability at 5 uM incubated for 72 hrs; format: functional, cell-based
[19] = test system: HCC; assay: Induction of apoptosis in human HCC cells at 5 uM by Annexin V/FITC staining based flow cytometry analysis; format: functional, cell-based
[20] = Toxicity in c-Myc/Alb-Cre transgenic mouse assessed as effect on ALB level at 2.5 mg/kg, po; format: organism-based; settings: in vivo
[21] = Metabolic stability in mouse microsomes measured after 120 mins; format: ADME, Liver, Microsome; settings: 2 h
[22] = Drug distribution in BALB/c mouse tumor measured after 24 hrs by HPLC analysis; format: ADME, tissue-based, Neoplasm; settings: in vivo
[23] = Chemical stability of compound at pH 7 measured after 24 hrs by HPLC analysis; format: physicochemical; settings: buffer, pH 7, 24 h
[24] = target: Peptidyl-prolyl cis-trans isomerase A (Homo sapiens) (UniProt P62937); assay: Inhibition of Cyclophilin A (unknown origin) expressed in Escherichia coli
Peptidyl-prolyl cis-trans isomerase A (Homo sapiens), sequence (P62937 whole entry, looked up): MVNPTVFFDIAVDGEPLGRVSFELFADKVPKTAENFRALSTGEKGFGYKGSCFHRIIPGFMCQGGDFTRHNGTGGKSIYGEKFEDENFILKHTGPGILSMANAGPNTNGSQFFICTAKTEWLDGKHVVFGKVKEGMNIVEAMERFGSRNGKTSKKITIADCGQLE

[25] = test system: SK-HEP1; assay: Inhibition of cell migration in human SK-HEP1 cells at 5 uM incubated for 24 hrs by crystal violet staining based microscopic analysis; format: functional
[26] = test system: SK-HEP1; assay: Antitumor activity against human SK-HEP1 cells xenografted in female BALB/c mouse assessed as downregulation of c-myc level at 2.5 mg/kg, po measured every 4 days by immunoblotting analysis; format: functional, organism-based; settings: time 4.0 day
[27] = Toxicity in c-Myc/Alb-Cre transgenic mouse assessed as effect on TP level at 2.5 mg/kg, po; format: organism-based; settings: in vivo
[28] = Toxicity in c-Myc/Alb-Cre transgenic mouse assessed as kidney damage at 2.5 mg/kg, po; format: organism-based; settings: in vivo
[29] = Toxicity in c-Myc/Alb-Cre transgenic mouse assessed as effect on ALT level at 2.5 mg/kg, po; format: organism-based; settings: in vivo
[30] = test system: SK-HEP1; assay: Upregulation of miR-122 expression in human SK-HEP1 cells at 5 uM incubated for 36 hrs by RT-PCR analysis; format: functional, cell-based
[31] = test system: SK-HEP1; assay: Antitumor activity against human SK-HEP1 cells xenografted in female BALB/c mouse assessed as increase in pin1 level in heart at 2.5 mg/kg, po measured every 4 days; format: functional, organism-based; settings: time 4.0 day
[32] = test system: SK-HEP1; assay: Inhibition of cell migration in human SK-HEP1 cells at 5 uM incubated for 24 hrs by wound healing assay; format: functional, cell-based
[33] = Toxicity in c-Myc/Alb-Cre transgenic mouse assessed as spleen damage at 2.5 mg/kg, po; format: organism-based; settings: in vivo
[34] = target: Voltage-gated inwardly rectifying potassium channel KCNH2 (Homo sapiens, UniProt Q12809)
Voltage-gated inwardly rectifying potassium channel KCNH2, sequence (Q12809 whole entry): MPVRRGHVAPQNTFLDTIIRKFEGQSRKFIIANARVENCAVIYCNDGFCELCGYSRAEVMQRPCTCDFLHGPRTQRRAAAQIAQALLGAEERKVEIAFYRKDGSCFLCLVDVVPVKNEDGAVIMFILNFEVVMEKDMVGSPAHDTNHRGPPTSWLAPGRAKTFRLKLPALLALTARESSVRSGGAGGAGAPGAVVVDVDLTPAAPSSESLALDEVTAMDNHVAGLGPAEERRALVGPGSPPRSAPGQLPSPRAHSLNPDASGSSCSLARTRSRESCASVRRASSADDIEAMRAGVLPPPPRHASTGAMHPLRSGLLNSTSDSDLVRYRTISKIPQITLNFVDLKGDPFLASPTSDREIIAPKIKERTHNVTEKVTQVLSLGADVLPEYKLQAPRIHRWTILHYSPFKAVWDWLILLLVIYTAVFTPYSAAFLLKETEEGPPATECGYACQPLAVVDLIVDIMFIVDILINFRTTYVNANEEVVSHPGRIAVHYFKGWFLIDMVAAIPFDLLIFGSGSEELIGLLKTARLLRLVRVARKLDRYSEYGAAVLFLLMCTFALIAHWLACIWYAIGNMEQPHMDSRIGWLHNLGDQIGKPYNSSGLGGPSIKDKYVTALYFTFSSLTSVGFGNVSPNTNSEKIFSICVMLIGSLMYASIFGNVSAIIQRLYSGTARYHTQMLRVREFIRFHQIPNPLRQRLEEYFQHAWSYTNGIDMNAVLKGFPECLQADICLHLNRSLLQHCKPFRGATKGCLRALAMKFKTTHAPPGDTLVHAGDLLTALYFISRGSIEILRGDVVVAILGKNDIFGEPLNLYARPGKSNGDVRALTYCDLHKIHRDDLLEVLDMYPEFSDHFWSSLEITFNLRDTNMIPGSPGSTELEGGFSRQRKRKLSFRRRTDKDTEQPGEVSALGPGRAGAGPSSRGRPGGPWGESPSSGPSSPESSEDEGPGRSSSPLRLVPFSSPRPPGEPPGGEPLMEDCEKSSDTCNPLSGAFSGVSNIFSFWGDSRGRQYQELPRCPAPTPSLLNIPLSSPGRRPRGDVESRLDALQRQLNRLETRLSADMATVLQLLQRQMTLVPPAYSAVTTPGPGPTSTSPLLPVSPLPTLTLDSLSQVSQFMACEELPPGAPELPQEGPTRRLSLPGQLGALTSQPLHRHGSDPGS

[35] = test system: SK-HEP1; assay: Antiproliferative activity human SK-HEP1 cells assessed as cell viability measured up to 120 hrs; format: functional, cell-based
[36] = test system: SK-HEP1; assay: Antitumor activity against human SK-HEP1 cells xenografted in c-Myc/Alb-Cre transgenic female BALB/c mouse model assessed as downregulation of c-myc level in liver at 2.5 mg/kg, po measured every 4 days by immunoblotting analysis; format: functional, organism-based; settings: time 4.0 day
[37] = target: T1, Peptidyl-prolyl cis-trans isomerase NIMA-interacting 1; assay: Binding affinity to GST-tagged pin1 (unknown origin) assessed as thermal stabilization at 1 uM at 48 to 58 degreeC by cellular thermal shift assay
[38] = Toxicity in c-Myc/Alb-Cre transgenic mouse assessed as effect on TBIL level at 2.5 mg/kg, po; format: organism-based; settings: in vivo
[39] = test system: SK-HEP1; assay: Antitumor activity against human SK-HEP1 cells xenografted in female BALB/c mouse assessed as increase in pin1 level in kidney at 2.5 mg/kg, po measured every 4 days; format: functional, organism-based; settings: time 4.0 day
[40] = test system: SK-HEP1; assay: Antitumor activity against human SK-HEP1 cells xenografted in female BALB/c mouse assessed as increase in pin1 level in spleen at 2.5 mg/kg, po measured every 4 days; format: functional, organism-based; settings: time 4.0 day
[41] = test system: SK-HEP1; assay: Upregulation of let7a expression in human SK-HEP1 cells at 5 uM incubated for 36 hrs by RT-PCR analysis; format: functional, cell-based
[42] = target: T1, Peptidyl-prolyl cis-trans isomerase NIMA-interacting 1; assay: Inhibition of full length pin1 (unknown origin) expressed in Escherichia coli
[43] = target: T1, Peptidyl-prolyl cis-trans isomerase NIMA-interacting 1; assay: Inhibition of pin1 in human SK-HEP1 cells assessed as reduction in beta-catenin level at 5 uM incubated for 24 hrs by immunoblotting analysis; format: cell-based
[44] = test system: SK-HEP1; assay: Antitumor activity against human SK-HEP1 cells xenografted in c-Myc/Alb-Cre transgenic female BALB/c mouse model assessed as downregulation of beta-catenin level in liver at 2.5 mg/kg, po measured every 4 days by immunoblotting analysis; format: functional, organism-based; settings: time 4.0 day
[45] = Drug localization in nucleus of human SK-HEP1 cells at 5 uM incubated for 24 hrs by Hoechst 33342 staining based fluorescence microscopic analysis; format: ADME, subcellular; settings: sk-hep1, 24 h
[46] = test system: SK-HEP1; assay: Antitumor activity against human SK-HEP1 cells xenografted in female BALB/c mouse assessed as increase in pin1 level in liver at 2.5 mg/kg, po measured every 4 days; format: functional, organism-based; settings: time 4.0 day
[47] = target: T1, Peptidyl-prolyl cis-trans isomerase NIMA-interacting 1; assay: Binding affinity to GST-tagged pin1 (unknown origin) assessed as dissociation constant by SPR analysis
[48] = test system: SK-HEP1; assay: Upregulation of miR-146a expression in human SK-HEP1 cells at 5 uM incubated for 36 hrs by RT-PCR analysis; format: functional, cell-based
[49] = target: Peptidyl-prolyl cis-trans isomerase NIMA-interacting 1 (Mus musculus) (UniProt Q9QUR7); assay: Binding affinity to mouse pin1
Peptidyl-prolyl cis-trans isomerase NIMA-interacting 1 (Mus musculus), sequence (Q9QUR7 whole entry): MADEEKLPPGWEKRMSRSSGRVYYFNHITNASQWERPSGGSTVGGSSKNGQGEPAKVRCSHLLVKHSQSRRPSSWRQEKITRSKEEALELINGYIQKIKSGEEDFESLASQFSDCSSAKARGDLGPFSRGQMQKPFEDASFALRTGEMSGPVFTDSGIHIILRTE

[50] = test system: Hep 3B2; assay: Antiproliferative activity human Hep3B cells assessed as inhibition of cell proliferation incubated for 120 hrs; format: functional, cell-based
[51] = Toxicity in female BALB/c mouse implanted with human SK-HEP1 cells assessed as effect on body weight at 2.5 mg/kg, po measured every 4 days; format: organism-based; settings: in vivo, 96 h, time 4 day
[52] = target: T1, Peptidyl-prolyl cis-trans isomerase NIMA-interacting 1; assay: Inhibition of pin1 in human SK-HEP1 cells at 5 uM by mass spectrometry analysis; format: cell-based
[53] = test system: SK-HEP1; assay: Antiproliferative activity human SK-HEP1 cells assessed as cell viability measured at 120 hrs; format: functional, cell-based
[54] = target: Peptidyl-prolyl cis-trans isomerase NIMA-interacting 4 (Homo sapiens) (UniProt Q9Y237); assay: Inhibition of full length pin4 (unknown origin) expressed in Escherichia coli
Peptidyl-prolyl cis-trans isomerase NIMA-interacting 4 (Homo sapiens), sequence (Q9Y237 whole entry): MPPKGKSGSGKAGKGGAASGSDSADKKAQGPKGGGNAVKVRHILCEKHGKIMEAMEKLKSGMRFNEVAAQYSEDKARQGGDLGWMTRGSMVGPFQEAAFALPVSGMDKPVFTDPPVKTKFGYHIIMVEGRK

[55] = Drug distribution in BALB/c mouse liver measured after 24 hrs by HPLC analysis; format: ADME, tissue-based; settings: in vivo

Compound: Nc1nc(OCc2ccc3c(c2)OCO3)c2nc[nH]c2n1
- Activity [1]: Non-toxic
- Activity [2]: Active
- IC50 at 72 h [3]: 2600 nM
- Activity [4]: Non-toxic
- inhibition [5]: inactive
- Activity [6]: Active
- Activity [7]: Active
- Stability [8]: Stable
- Activity [9]: Active
- Activity [10]: Active
- Activity [11]: Non-toxic
- Activity [12]: Non-toxic
- Activity [13]: Active
- Activity [14]: Active
- inhibition [15]: Active
- Activity [16]: Non-toxic
- Activity [17]: Active
- Activity [18]: Active
- Activity [19]: Active
- Activity [20]: Non-toxic
- Stability [21]: Stable
- Drug uptake [22]: Active
- Stability [23]: Stable
- inhibition [24]: inactive
- inhibition [25]: Active
- Activity [26]: Active
- Activity [27]: Non-toxic
- Activity [28]: Non-toxic
- Activity [29]: Non-toxic
- Activity [30]: Active
- Activity [31]: Active
- inhibition [32]: Active
- Activity [33]: Non-toxic
- IC50 [34]: > 30 µM
- Activity [35]: Active
- Activity [36]: Active
- Activity [37]: Active
- Activity [38]: Non-toxic
- Activity [39]: Active
- Activity [40]: Active
- Activity [41]: Active
- IC50 [42]: 64.4 nM
- inhibition [43]: Active
- Activity [44]: Active
- Drug uptake [45]: Active
- Activity [46]: Active
- Kd [47]: 154 nM
- Activity [48]: Active
- Activity [49]: Active
- Activity [50]: Active
- Activity [51]: Non-toxic
- inhibition [52]: Active
- Activity [53]: Active
- inhibition [54]: inactive
- Drug uptake [55]: Active
